In ChEMBL document CHEMBL1147320, “Isolation of a novel tyrosine kinase inhibitor, lavendustin A, from Streptomyces griseolavendus” (J Nat Prod, 1989):
In brackets after ≈: the same amount, converted by molar mass. Activity calls are given as the source filed them. The rule behind the calls is not given here.

Legend:
A-431 = experiment: Cytotoxicity against human A431 cells; type: functional, cell-based
[1] = molecular target: Epidermal growth factor receptor (Mus musculus, UniProt Q01279); experiment: Inhibition of mouse EGFR by liquid scintillation counting
[2] = Inhibition of protein kinase A
[3] = Inhibition of protein kinase C
[4] = Inhibition of phosphatidylinositol kinase
[5] = molecular target: Epidermal growth factor receptor (Mus musculus) (UniProt Q01279); experiment: Inhibition of mouse EGFR using [32P]gammaATP as substrate by competitive Lineweaver-Burke plot
[6] = molecular target: Epidermal growth factor receptor (Mus musculus) (UniProt Q01279); experiment: Inhibition of mouse EGFR using tridecapeptide as substrate by uncompetitive Lineweaver-Burke plot
[7] = Cytotoxicity against mouse NIH/3T3 cells; type: cell-based; conditions: NIH3T3
NIH3T3 = experiment: Cytotoxicity against RSV transformed mouse NIH/3T3 cells; type: functional, cell-based
P388 = experiment: Cytotoxicity against mouse P388 cells; type: functional, cell-based
L1210 = experiment: Cytotoxicity against mouse L1210 cells; type: functional, cell-based
[8] = molecular target: Epidermal growth factor receptor (Homo sapiens, UniProt P00533)
Epidermal growth factor receptor (Homo sapiens, UniProt P00533), sequence (P00533 whole entry): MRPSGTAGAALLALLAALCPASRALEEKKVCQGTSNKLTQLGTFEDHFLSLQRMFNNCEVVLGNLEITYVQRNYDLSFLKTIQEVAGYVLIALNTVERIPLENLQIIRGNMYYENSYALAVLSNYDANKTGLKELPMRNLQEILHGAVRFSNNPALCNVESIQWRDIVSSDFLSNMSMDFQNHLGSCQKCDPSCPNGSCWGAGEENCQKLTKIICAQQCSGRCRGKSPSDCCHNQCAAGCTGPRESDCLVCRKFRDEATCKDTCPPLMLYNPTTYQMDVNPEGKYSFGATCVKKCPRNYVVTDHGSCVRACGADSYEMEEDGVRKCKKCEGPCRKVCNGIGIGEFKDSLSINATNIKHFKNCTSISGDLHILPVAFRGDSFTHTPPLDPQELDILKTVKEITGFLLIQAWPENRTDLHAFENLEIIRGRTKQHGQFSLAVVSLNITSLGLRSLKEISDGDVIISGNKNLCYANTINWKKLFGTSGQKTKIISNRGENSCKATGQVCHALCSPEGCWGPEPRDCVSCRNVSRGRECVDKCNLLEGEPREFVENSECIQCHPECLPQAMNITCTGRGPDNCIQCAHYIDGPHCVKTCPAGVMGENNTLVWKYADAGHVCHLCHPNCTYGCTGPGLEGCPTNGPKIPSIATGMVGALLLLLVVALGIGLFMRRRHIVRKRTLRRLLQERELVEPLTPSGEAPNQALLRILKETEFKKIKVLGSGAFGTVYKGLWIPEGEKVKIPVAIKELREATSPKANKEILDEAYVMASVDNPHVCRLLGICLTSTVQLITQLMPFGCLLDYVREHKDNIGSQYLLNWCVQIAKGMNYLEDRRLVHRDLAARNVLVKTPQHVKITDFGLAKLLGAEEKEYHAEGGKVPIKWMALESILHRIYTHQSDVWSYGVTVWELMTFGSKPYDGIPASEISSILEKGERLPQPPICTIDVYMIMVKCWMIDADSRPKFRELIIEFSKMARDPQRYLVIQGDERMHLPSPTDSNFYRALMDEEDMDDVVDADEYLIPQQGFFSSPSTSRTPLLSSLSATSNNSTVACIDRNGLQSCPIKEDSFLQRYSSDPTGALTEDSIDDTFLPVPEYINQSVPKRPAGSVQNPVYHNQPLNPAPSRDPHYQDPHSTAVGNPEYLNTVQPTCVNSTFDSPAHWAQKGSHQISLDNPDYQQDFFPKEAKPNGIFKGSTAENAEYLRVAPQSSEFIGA

Epidermal growth factor receptor (Mus musculus, UniProt Q01279), sequence (Q01279 whole entry): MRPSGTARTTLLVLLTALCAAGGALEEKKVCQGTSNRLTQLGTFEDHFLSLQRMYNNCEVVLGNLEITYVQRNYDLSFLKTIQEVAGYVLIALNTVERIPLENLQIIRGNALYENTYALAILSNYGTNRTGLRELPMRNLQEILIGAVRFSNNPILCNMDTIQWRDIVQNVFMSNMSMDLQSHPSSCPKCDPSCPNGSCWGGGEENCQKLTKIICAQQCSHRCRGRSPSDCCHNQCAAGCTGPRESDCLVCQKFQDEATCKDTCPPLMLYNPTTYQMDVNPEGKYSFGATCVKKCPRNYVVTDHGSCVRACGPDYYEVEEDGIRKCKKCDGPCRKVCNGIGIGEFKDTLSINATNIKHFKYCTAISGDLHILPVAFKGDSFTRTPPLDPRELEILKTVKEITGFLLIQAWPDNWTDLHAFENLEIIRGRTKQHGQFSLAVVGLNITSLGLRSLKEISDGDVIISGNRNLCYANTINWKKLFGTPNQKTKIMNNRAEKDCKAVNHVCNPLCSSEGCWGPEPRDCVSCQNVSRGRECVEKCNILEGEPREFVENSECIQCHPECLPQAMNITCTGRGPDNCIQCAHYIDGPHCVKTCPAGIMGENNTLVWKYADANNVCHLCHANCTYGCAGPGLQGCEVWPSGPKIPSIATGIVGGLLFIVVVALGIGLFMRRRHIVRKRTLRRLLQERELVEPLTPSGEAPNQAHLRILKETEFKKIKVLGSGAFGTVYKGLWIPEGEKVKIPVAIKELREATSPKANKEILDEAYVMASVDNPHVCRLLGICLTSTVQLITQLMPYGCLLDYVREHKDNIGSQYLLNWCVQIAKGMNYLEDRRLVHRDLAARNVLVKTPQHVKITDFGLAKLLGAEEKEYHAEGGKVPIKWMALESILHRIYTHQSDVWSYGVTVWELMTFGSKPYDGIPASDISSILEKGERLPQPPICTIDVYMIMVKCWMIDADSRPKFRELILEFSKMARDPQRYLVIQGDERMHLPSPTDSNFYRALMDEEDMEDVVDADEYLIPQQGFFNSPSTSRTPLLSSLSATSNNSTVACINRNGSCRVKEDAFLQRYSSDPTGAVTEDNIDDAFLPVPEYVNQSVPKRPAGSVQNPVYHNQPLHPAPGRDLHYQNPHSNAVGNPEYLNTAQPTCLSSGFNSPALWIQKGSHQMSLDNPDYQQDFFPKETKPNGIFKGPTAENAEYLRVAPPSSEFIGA
Epidermal growth factor receptor (Mus musculus), sequence (Q01279 whole entry): as above

O=C(O)c1cc(N(Cc2ccccc2O)Cc2cc(O)ccc2O)ccc1O [LAVENDUSTIN A]
IC50 (A-431): 26 µg/mL (≈ 68.2 µM) | IC50 [1]: 11.5 nM | IC50 [2]: > 100 µg/mL | IC50 [3]: > 100 µg/mL | IC50 [4]: 6.4 µg/mL (≈ 16.8 µM) | Activity [5]: Active | Activity [6]: Active | IC50 [7]: 22 µg/mL (≈ 57.7 µM) | IC50 (NIH3T3): 19.5 µg/mL (≈ 51.1 µM) | IC50 (P388): 21.5 µg/mL (≈ 56.4 µM) | IC50 (L1210): 28 µg/mL (≈ 73.4 µM)

O=C(O)c1cc(N(Cc2cc(O)ccc2O)Cc2cc(O)ccc2O)ccc1O
IC50 [1]: 27.7 nM

O=C(O)c1ccc(O)c(N(Cc2ccccc2O)Cc2cc(O)ccc2O)c1
IC50 [1]: 446 nM

Nc1cc(C(=O)O)ccc1O
IC50 [1]: > 653000 nM

O=CN/C=C/c1cc(O)ccc1O [ERBSTATIN]
IC50 [1]: 1120 nM | IC50 [2]: 100 µg/mL (≈ 558 µM) | IC50 [3]: > 179 µg/mL | IC50 [4]: 25 µg/mL (≈ 140 µM) | IC50 [8]: 1120 nM

O=C(O)c1cc(N(Cc2ccccc2O)Cc2ccccc2O)ccc1O [LAVENDUSTIN B]
IC50 [1]: 1340 nM

Nc1ccc(O)c(C(=O)O)c1 [MESALAMINE]
IC50 [1]: 17600 nM

O=Cc1cc(O)ccc1O
IC50 [1]: 239000 nM

O=C(O)c1cc(/N=C\c2cc(O)ccc2O)ccc1O
IC50 [1]: 2780 nM
